Measured values from patent US12570957B2, “Isolated naive pluripotent stem cells and methods of generating same” (Yeda Research and Development Co. Ltd., priority 2013, dated 2026).

Key:
naive hESCs/hiPSCs = assay: Substitution of p38 inhibitor in WIS-NHSM, OCT4-GFP expression; assay type: cell-based, human; conditions: used instead of SB203580 in WIS-NHSM
naive cells = assay: Pluripotency (Oct4-GFP) after passaging with DNA methylation or EED inhibitors; assay type: cell-based, human and mouse; conditions: Oct4-GFP reporter
PKCδ = PKCδ (Homo sapiens, UniProt Q05655); conditions: read-out: IC50 for PKC6; cited from earlier work
PKCζ = target: T1, PKCζ (Homo sapiens, UniProt Q05513); conditions: read-out: IC50 for PKC; cited from earlier work
T1 sequence (Q05513 1-592): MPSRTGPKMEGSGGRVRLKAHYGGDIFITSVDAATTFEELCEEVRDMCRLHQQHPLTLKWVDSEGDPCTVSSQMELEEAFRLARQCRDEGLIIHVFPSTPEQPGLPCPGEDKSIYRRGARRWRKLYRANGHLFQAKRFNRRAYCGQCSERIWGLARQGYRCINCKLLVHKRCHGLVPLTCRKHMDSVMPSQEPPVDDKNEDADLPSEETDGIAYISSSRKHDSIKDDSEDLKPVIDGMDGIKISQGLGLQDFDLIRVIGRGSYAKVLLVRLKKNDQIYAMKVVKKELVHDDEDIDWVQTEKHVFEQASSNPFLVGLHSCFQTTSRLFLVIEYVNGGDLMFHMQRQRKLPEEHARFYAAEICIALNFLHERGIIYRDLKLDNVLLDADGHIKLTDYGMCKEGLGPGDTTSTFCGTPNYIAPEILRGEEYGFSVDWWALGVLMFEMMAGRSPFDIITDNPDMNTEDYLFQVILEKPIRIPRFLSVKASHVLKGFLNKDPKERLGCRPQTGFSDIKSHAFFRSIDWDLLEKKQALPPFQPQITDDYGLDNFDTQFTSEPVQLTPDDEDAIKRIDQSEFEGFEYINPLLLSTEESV

MBD3 = assay: Western blot for MBD3 protein expression in V6.5 mouse ES cells after 4 days treatment; assay type: cell-based; conditions: 2i/LIF plus agent at 5 micromolar
Excerpt: FIGS. 1O1A-101B are Western blot analyses showing expression of MBD3 (FIG. 101B) and of HSP90 (FIG. 101A) in v6.5 mouse ES cells after different treatments. V6.5 mouse ES cells were expanded for 4 days in the indicated conditions and subjected to Western blot analysis for MBD3 protein expression. Following are the abbreviations and concentrations of the indicated factors and agents. PBS=phosphate buffered saline; “LIF”=leukemia inhibitory factor, provided at a concentration of 20 nanograms/milliliter (ng/ml); KSR=knockout serum replacement; “2i/LIF”=small-molecule inhibitors CHIR99021 (CH, 3 M—Axon Medchem) and PD0325901 (PD, 1 M—TOCRIS), with 20 ng/ml LIF; “DMSO”=Dimethyl sulfoxide at a concentration of 0.1%; TGFRi (inhibitor of transforming growth factor receptor; SB431542 at 5 micromolar); PKC-i (inhibitor of protein kinase C; Go6983 at 5 micromolar).
V6.5 mouse ES cells were expanded for 4 days in various conditions in order to identify combination of factors which result in reduced MBD3 protein levels.

PKCγ = PKCγ (Homo sapiens, UniProt P05129); conditions: read-out: IC50 for PKCy; cited from earlier work
PKCμ = target: T2, PKCμ (Homo sapiens, UniProt Q15139); conditions: read-out: IC50 for PKCp; cited from earlier work
T2 sequence (Q15139 1-912): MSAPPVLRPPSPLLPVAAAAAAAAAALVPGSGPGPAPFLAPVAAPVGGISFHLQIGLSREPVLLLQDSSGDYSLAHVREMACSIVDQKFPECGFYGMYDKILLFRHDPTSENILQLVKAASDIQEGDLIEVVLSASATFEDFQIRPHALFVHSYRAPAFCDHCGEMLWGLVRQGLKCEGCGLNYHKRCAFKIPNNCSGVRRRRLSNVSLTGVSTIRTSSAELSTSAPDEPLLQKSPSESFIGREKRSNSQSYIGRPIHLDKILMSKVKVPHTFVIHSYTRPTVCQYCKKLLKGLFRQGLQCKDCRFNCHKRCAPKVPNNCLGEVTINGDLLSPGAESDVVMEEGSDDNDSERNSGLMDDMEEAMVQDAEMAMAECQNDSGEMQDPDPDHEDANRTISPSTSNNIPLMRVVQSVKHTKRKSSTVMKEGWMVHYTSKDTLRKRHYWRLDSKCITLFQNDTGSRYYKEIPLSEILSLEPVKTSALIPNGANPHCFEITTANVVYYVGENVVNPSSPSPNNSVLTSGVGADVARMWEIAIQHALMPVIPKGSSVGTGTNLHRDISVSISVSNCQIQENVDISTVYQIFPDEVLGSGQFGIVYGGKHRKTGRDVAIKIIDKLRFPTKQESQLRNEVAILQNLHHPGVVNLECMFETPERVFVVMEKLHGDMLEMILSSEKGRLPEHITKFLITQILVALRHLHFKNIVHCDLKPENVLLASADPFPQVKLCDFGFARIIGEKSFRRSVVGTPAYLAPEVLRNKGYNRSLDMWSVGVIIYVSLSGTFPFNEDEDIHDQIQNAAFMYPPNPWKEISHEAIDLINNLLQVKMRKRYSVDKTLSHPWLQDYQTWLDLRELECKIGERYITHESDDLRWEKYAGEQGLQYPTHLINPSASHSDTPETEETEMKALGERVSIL

PKCα = PKCα (Homo sapiens, UniProt P17252); conditions: read-out: IC50 for PKCu; cited from earlier work
PKCβ = PKCβ (Homo sapiens, UniProt P05771); conditions: read-out: IC50 for PKC0; cited from earlier work
primed hESCs and hiPSCs = assay: Single-cell cloning efficiency, primed cells; assay type: cell-based, human; conditions: in the presence of ROCK inhibitor
Excerpt: (§1) FIGS. 74A-74D depict enhanced growth rate and single cell cloning efficiency of human naive pluripotent stem cells. FIG. 74A—Population doubling time of various mouse and human pluripotent stem cell lines. After plating each cell lines in replicates, cells were harvested at days 2,4 and 6 and there growth was normalized by counting cell number at each stage and calculating growth rate relative to the number of cells harvested and counted at day 2 (rather than number of plated cells to account for variability in survival after plating). Error bars represent s.d., and P values represent t-test of average from primed hESC/hiPSC lines to average of naive hESC/hiPSC lines. FIG. 74B—Single-cell cloning efficiency of different pluripotent stem cell lines as determined by the number of wells containing NANOG+ colonies 6 days after plating (with or without ROCK inhibitor as indicated in the figure). * indicates student's t-test P value <0.01 between the average of the compared groups. Error bars indicate s.d. […] Single-cell cloning efficiency of different pluripotent stem cell lines as determined by the number of wells containing Nanog+ colonies 6 days after plating (without using ROCK inhibitor as indicated in the figure). * indicates student's t-test P value <0.01 between the average of the compared groups. […]

naive hPSCs = assay: Single-cell cloning efficiency, naive cells; assay type: cell-based, human; conditions: in the presence of ROCK inhibitor
Excerpt: as §1

Mbd3 binding to Chd4 = target: T3, Mbd3 binding to Chd4 (Homo sapiens, UniProt O95983); assay: Co-immunoprecipitation of Flag-Mbd3 interacting proteins in 293T cells; assay type: cell-based; conditions: Flag-Mbd3 IP
T3 construct: expressed in transfected cells; host or cells: 293T cells
T3 sequence (O95983 1-291): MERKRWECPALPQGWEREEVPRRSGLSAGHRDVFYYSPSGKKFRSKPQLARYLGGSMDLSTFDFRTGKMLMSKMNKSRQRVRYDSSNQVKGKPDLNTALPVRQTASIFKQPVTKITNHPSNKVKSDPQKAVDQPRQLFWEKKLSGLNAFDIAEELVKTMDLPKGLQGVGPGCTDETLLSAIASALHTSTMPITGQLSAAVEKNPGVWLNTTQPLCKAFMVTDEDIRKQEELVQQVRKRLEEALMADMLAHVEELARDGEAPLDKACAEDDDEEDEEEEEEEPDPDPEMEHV
Excerpt: 293T cells were transfected with both with Flag-Mbd3 (WT) and P66a-CC (SEQ ID NO:71; GenBank Accession NO. NM_017660.3) or a control vector (mCherry), Mbd3 15 interacting proteins were pulled down by immunoprecipitation (IP) using Flag-magnetic beads.
The present inventors overexpressed MBD3-WT (SEQ ID NO: 112) and the HA-tagged p66u-CC in 293T cells, and further show in a co-immunoprecipitation for anti-Mbd3 pulldown, that the presence of p66u inhibits MBD3 binding and recruitment to CHD4 (FIG. 93).

Chain of PKCδ (Q05655 whole entry): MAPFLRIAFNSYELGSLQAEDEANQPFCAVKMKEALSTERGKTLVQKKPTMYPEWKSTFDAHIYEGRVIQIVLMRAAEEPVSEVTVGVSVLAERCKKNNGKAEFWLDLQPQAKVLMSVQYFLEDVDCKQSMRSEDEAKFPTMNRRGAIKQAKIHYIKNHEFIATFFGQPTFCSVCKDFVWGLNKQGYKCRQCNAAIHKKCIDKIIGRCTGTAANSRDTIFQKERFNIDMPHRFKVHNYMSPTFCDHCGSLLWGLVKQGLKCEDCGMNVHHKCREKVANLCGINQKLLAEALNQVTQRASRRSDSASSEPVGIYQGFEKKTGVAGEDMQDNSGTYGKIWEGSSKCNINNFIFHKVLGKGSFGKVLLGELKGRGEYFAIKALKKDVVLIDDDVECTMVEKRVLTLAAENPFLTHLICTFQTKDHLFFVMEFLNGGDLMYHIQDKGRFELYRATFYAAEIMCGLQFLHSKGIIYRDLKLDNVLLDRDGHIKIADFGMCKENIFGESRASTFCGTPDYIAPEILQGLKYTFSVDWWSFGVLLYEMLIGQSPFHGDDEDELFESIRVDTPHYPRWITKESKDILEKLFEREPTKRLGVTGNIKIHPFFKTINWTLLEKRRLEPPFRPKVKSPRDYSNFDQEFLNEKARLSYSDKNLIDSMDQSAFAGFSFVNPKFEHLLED
Chain of PKCβ (P05771 whole entry, species assumed): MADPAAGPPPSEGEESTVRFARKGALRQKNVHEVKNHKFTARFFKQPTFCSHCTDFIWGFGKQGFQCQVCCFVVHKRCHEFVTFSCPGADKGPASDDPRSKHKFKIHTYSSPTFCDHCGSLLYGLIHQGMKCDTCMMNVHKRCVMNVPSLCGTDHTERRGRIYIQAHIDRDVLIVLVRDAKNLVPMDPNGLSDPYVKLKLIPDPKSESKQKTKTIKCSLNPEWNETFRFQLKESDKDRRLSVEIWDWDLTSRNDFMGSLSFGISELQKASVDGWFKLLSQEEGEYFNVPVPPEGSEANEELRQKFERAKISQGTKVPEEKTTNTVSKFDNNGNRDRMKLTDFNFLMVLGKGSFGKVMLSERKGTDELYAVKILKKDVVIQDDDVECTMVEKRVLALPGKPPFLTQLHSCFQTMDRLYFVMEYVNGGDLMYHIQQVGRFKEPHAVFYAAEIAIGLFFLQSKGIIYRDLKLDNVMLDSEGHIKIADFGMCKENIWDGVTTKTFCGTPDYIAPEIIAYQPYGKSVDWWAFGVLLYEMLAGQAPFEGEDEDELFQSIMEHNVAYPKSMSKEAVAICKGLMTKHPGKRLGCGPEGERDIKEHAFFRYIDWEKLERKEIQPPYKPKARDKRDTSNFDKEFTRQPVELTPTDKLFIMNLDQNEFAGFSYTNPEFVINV

Cc1ccc(-n2nc(C(C)(C)C)cc2NC(=O)Nc2ccc(OCCN3CCOCC3)c3ccccc23)cc1 [BIRB796]
change in OCT4-GFP expression (naive hESCs/hiPSCs): without any change

Nc1ncn([C@H]2C[C@H](O)[C@@H](CO)O2)c(=O)n1 [Condition 5d-AZA]
pluripotency after passaging in presence of inhibitor (naive cells): retain their pluripotency

Nc1nccc2c1ncn2C1C=C(CO)C(O)C1O (stereo not shown) [DzNEP]
pluripotency after passaging in presence of inhibitor (naive cells): retain their pluripotency

COc1ccc2c(c1)c(C1=C(c3c[nH]c4ccccc34)C(=O)NC1=O)cn2CCCN(C)C [Go6983]
IC50 (PKCδ): 10 nM | IC50 (PKCζ): 60 nM | MBD3 protein levels (MBD3): significant depletion | MBD3 protein levels (MBD3; listed as PKC inhibitor): significant reduction | IC50 (PKCγ): 6 nM | IC50 (PKCμ): 20000 nM | IC50 (PKCα): 7 nM | IC50 (PKCβ): 7 nM

C[C@@H](N)[C@H]1CC[C@H](C(=O)Nc2ccncc2)CC1 [ROCK inhibitor, Y-27632]
single cell cloning efficiency (primed hESCs and hiPSCs): up to 22% | single cell cloning efficiency (naive hPSCs): up to 88%

Oc1ccc(-c2nc(-c3ccncc3)c(-c3ccc(F)cc3)[nH]2)cc1 [SB202190]
change in OCT4-GFP expression (naive hESCs/hiPSCs): without any change

NC(=O)c1ccc(-c2nc(-c3ccc4c(c3)OCO4)c(-c3ccccn3)[nH]2)cc1 [SB431542]
MBD3 protein levels (MBD3): did not affect

P66a-CC: P66 alpha coiled-coil domain, SEQ ID NO:114, expressed by transfection (PEERERMIKQLKEELRLEEAKLVLLKKLRQSQIQKEATAQK; (1)..(41) P66 alpha coiled-coil domain; listed as Homo sapiens) [Condition P66a-CC]
Chd4 interaction with Mbd3 (Mbd3 binding to Chd4): specific loss of Chd4 interaction with Mbd3
